Drawing on the PolyMetriX glass transition set, this text covers glass transition temperature for 69 molecules.

Molecules are shown by their SMILES.

Take `*CCCC(=O)N*` (repeat unit): the glass transition temperature was 62.80 °C. `*CCCC(=O)Nc1ccc(Cc2ccc(NC(=O)CCCN3C(=O)c4ccc(C(=O)c5ccc6c(c5)C(=O)N(*)C6=O)cc4C3=O)cc2)cc1` (repeat unit) showed a glass transition temperature of 195.00 °C. To `*CCCC(=O)O*` (repeat unit) belongs 1.50 °C; to `*CCCC(=O)Oc1ccc(OC(=O)c2ccc3c(c2)C(=O)N(*)C3=O)cc1` (repeat unit), 132.00 °C; to `*CCCC(C)(C)CCCNC(=O)c1ccc(C(=O)N*)cc1` (repeat unit), 152.00 °C. To `*CCCC(C)(C)CNC(=O)c1cccc(C(=O)N*)c1` (repeat unit) belongs 153.00 °C; to `*CCCC(C)CN1C(=O)c2ccc(C(=O)Oc3ccc(-c4ccc(OC(=O)c5ccc6c(c5)C(=O)N(*)C6=O)cc4)cc3)cc2C1=O` (repeat unit), 155.00 °C; to `*CCCC1CC(=O)N(*)C(=O)C1` (repeat unit), 90.00 °C. For `*CCCCCC(=O)Nc1ccc(Cc2ccc(NC(=O)CCCCCN3C(=O)c4ccc(C(=O)c5ccc6c(c5)C(=O)N(*)C6=O)cc4C3=O)cc2)cc1` (repeat unit), the glass transition temperature is 187.00 °C.

In turn, `*CCCCCC(=O)Nc1ccc(NC(=O)CCCCCN2C(=O)c3ccc(C(=O)c4ccc5c(c4)C(=O)N(*)C5=O)cc3C2=O)cc1` (repeat unit) displayed a glass transition temperature of 200.00 °C. To `*CCCCCC(=O)Nc1ccc(Oc2ccc(NC(=O)CCCCCN3C(=O)c4ccc(C(=O)c5ccc6c(c5)C(=O)N(*)C6=O)cc4C3=O)cc2)cc1` (repeat unit) belongs 195.00 °C; to `*CCCCCC(=O)Nc1ccc(Oc2cccc(NC(=O)CCCCCN3C(=O)c4ccc(C(=O)c5ccc6c(c5)C(=O)N(*)C6=O)cc4C3=O)c2)cc1` (repeat unit), 170.00 °C.

`*CCCCCC(=O)Oc1ccc(C2(c3ccc(OC(=O)c4ccc5c(c4)C(=O)N(*)C5=O)cc3)CCCCC2)cc1` (repeat unit) yielded a glass transition temperature of 122.00 °C. To `*CCCCCC(=O)Oc1ccc(OC(=O)c2ccc3c(c2)C(=O)N(*)C3=O)cc1` (repeat unit) belongs 89.00 °C; to `*CCCCCC(=O)Oc1ccc2ccc(OC(=O)c3ccc4c(c3)C(=O)N(*)C4=O)cc2c1` (repeat unit), 113.00 °C. With `*CCCCCCC(=O)N*` (repeat unit), the glass transition temperature amounted to 52.00 °C. To `*CCCCCCC(=O)O*` (repeat unit) belongs -14.00 °C. In turn, `*CCCCCCCCC(=O)N*` (repeat unit) yielded a glass transition temperature of 48.00 °C.

For `*CCCCCCCCCCC(=O)N*` (repeat unit), the glass transition temperature was determined as 46.00 °C. Take `*CCCCCCCCCCC(=O)Nc1ccc(NC(=O)CCCCCCCCCCN2C(=O)c3ccc(C(=O)c4ccc5c(c4)C(=O)N(*)C5=O)cc3C2=O)cc1` (repeat unit): the glass transition temperature was 125.00 °C. To `*CCCCCCCCCCC(=O)Nc1ccc(Oc2ccc(Oc3ccc(NC(=O)CCCCCCCCCCN4C(=O)c5ccc(C(=O)c6ccc7c(c6)C(=O)N(*)C7=O)cc5C4=O)cc3)cc2)cc1` (repeat unit) belongs 122.00 °C; to `*CCCCCCCCCCC(=O)O*` (repeat unit), -46.0 °C; to `*CCCCCCCCCCCC(=O)Oc1ccc(C2(c3ccc(OC(=O)c4ccc5c(c4)C(=O)N(*)C5=O)cc3)CCCCC2)cc1` (repeat unit), 96.00 °C. To `*CCCCCCCCCCCC(=O)Oc1ccc2cc(OC(=O)CCCCCCCCCCCn3c(=O)c4cc5c(=O)n(*)c(=O)c5cc4c3=O)ccc2c1` (repeat unit) belongs 62.00 °C.

With `*CCCCCCCCCCCC(=O)Oc1ccc2ccc(OC(=O)c3ccc4c(c3)C(=O)N(*)C4=O)cc2c1` (repeat unit), the glass transition temperature was 98.00 °C. To `*CCCCCCCCCCCCCCCCCCNC(=O)CCCCCCCCCCCCCCCCC(=O)N*` (repeat unit) belongs 50.00 °C. To `*CCCCCCCCCCCCNC(=O)CCCCCCCCCCCCCCCCCCC(=O)N*` (repeat unit) belongs 221.60 °C. The molecule `*CCCCCCCCCCNC(=O)CCCCCCCCCCCCCCC(=O)N*` (repeat unit) showed a glass transition temperature of 45.00 °C. To `*CCCCCCN(C(=O)C(F)(F)C(F)(F)C(F)(F)C(=O)N(*)C(C)C)C(C)C` (repeat unit) belongs 142.50 °C; to `*CCCCCCN(C)C(=O)CCC(=O)N(*)C` (repeat unit), 7.50 °C; to `*CCCCCCNC(=O)CCCCCCCCCCCCCCC(=O)N*` (repeat unit), 40.00 °C. To `*CCCCCCOc1ccc(NC(=O)c2cc(C(=O)Nc3ccc(O*)cc3)cc(C(C)(C)C)c2)cc1` (repeat unit) belongs 166.00 °C; to `*CCCCCCSS*` (repeat unit), -74.00 °C; to `*CCCCC[Si](*)(C)c1ccccc1` (repeat unit), -10.40 °C. To `*CCCCP(C)(=O)CCCNC(=O)CCCCC(=O)N*` (repeat unit) belongs 59.00 °C; to `*CCCN(*)C` (repeat unit), -37.50 °C; to `*CCCN(C)c1ccc(C(=O)c2ccc(N(*)C)cc2)cc1` (repeat unit), 101.00 °C. Take `*CCCP(CCCCCCCC)CCCNC(=O)CCCCC(=O)N*` (repeat unit): the glass transition temperature is 12.00 °C. Molecule `*CCC[Si](*)(C)CCC[Si](C)(C)C` (repeat unit) returned a glass transition temperature of -46.00 °C.

For the molecule `*CCC[Si](*)(C)O[Si](C)(C)CCCOc1ccc(C(=O)Oc2ccc(C#N)cc2)cc1` (repeat unit), the glass transition temperature was -19.10 °C. To `*CCC[Si](*)(C)c1cccc(C)c1` (repeat unit) belongs -25.00 °C; to `*CCC[Si](*)(c1ccccc1)c1ccc(N(C)C)cc1` (repeat unit), 52.00 °C; to `*CCC[Si](C)(C)O[Si](C)(C)CCCN1C(=O)c2ccc(-c3ccc4c(c3)C(=O)N(*)C4=O)cc2C1=O` (repeat unit), 75.00 °C.

For `*CC[CH2][Sn]([CH3])([CH3])[CH2]CCOC(=O)C(CCCCCCOc1ccc(-c2ccc(OCc3ccc([N+](=O)[O-])cc3)cc2)cc1)C(=O)O*` (repeat unit), the glass transition temperature stood at 40.50 °C. The molecule `*CCN(*)C(=O)C(C)C` (repeat unit) showed a glass transition temperature of 30.00 °C. To `*CCN(*)C(=O)C(OC)(c1ccccc1)C(F)(F)F` (repeat unit) belongs 89.00 °C. To `*CCN(*)C(=O)C1(c2ccc(Cl)cc2)CCC1` (repeat unit) belongs 112.00 °C. To `*CCN(*)C(=O)C1CC1` (repeat unit) belongs 77.00 °C.

With `*CCN(*)C(=O)CCC` (repeat unit), the glass transition temperature is 42.00 °C. `*CCN(*)C(=O)CCCC` (repeat unit) displayed a glass transition temperature of 13.00 °C. To `*CCN(*)C(=O)c1c(F)cc(F)cc1F` (repeat unit) belongs 135.00 °C.

`*CCN(*)C(=O)c1c(F)cccc1F` (repeat unit) showed a glass transition temperature of 121.50 °C. For `*CCN(*)C(=O)c1cc(F)c(F)c(F)c1F` (repeat unit), the glass transition temperature worked out at 97.00 °C. With `*CCN(*)C(=O)c1cc(F)c(F)cc1F` (repeat unit), the glass transition temperature was 105.00 °C.

Take `*CCN(*)C(=O)c1ccc(F)cc1` (repeat unit): the glass transition temperature came to 104.00 °C. To `*CCN(C)C(=O)CCCCCCCCC(=O)N(*)C` (repeat unit) belongs 0.00 °C; to `*Nc1ccc(Cc2ccc(NC(=O)c3cc(NC(=O)c4ccccc4)cc(C(*)=O)c3)cc2)cc1` (repeat unit), 285.00 °C. To `*Nc1ccc(NC(=O)c2cc(-c3ccc(C(=O)OCC)c(C(*)=O)c3)ccc2C(=O)OCC)cc1` (repeat unit) belongs 231.70 °C; to `*Nc1ccc(NC(=O)c2cc(NC(=O)c3ccccc3)cc(C(*)=O)c2)cc1` (repeat unit), 321.00 °C. To `*O[Si](C)(C)CCCCCCCC[Si](*)(C)C` (repeat unit) belongs -88.00 °C; to `*O[Si](C)(C)CCCCCC[Si](*)(C)C` (repeat unit), -90.00 °C; to `*Oc1ccc(NC(=O)c2cc(C(=O)Nc3ccc(Oc4ccc(C5(c6ccc(*)cc6)CC6CCC5C6)cc4)cc3)cc(C(C)(C)C)c2)cc1` (repeat unit), 272.00 °C.

`*Oc1ccc(NC(=O)c2cc(C(c3ccc(C(=O)O)c(C(=O)Nc4ccc(Oc5ccc(C(c6ccc(*)cc6)(C(F)(F)F)C(F)(F)F)cc5)cc4)c3)(C(F)(F)F)C(F)(F)F)ccc2C(=O)O)cc1` (repeat unit): the glass transition temperature came out at 260.00 °C. To `*Oc1ccc(NC(=O)c2cc(NC(=O)c3ccc(OC(C)=O)cc3)cc(C(=O)Nc3ccc(Oc4ccc(-c5ccc(*)cc5)cc4)cc3)c2)cc1` (repeat unit) belongs 252.00 °C. In turn, `*Oc1ccc(S(=O)(=O)N(C)CCCCN(C)S(=O)(=O)c2ccc(Oc3ccc(C(C)(C)c4ccc(*)cc4)cc3)cc2)cc1` (repeat unit) came in with a glass transition temperature of 120.00 °C. `*c1ccc(OC(=O)CCCCCCCCCCCCCCCCCCCCC(=O)Oc2ccc(N3C(=O)c4ccc(-c5ccc6c(c5)C(=O)N(*)C6=O)cc4C3=O)cc2)cc1` (repeat unit) came in with a glass transition temperature of 140.00 °C. Turning to `*c1ccc(Oc2ccc(NC(=O)c3cc(NC(=O)c4ccc(OC(C)=O)cc4)cc(C(=O)Nc4ccc(Oc5ccc(-c6nnc(*)o6)cc5)cc4)c3)cc2)cc1` (repeat unit), the glass transition temperature came to 270.00 °C.

In turn, `*c1ncnc(N(CCCCCCCCCCN(*)c2ccccc2)c2ccccc2)n1` (repeat unit) returned a glass transition temperature of 55.00 °C. To `*c1ncnc(N(CCCCN(*)c2ccccc2)c2ccccc2)n1` (repeat unit) belongs 91.00 °C.
